Results as given in PMC2199082 (The Journal of Experimental Medicine, 1997).
No end group written: not given here.

Legend:
murine calvaria = assay: Calvarial bone resorption assay; format: cell-based, mouse; settings: for osteolytic activity of peptides in the calvarial assay: graded concentrations, three separate experiments
[1] = tested on: human osteoblast-like cell line MG63; assay: Osteoblast proliferation; format: cell-based; settings: subconfluent MG63, 24 h, DMEM 2% FCS, [3H]thymidine last 6 h

1–58: synthetic Mt cpn10 peptide, residues 1–58 (MAKVNIKPLEDKILVQANEAETTTASGLVIPDTAKEKPQEGTVVAVGPGRWDEDGEKR; also: dimer; UniProt P9WPE5 1-58, looked up, fragment)
osteolytic activity of peptides in the calvarial assay (murine calvaria): inactive

46–99: synthetic Mt cpn10 peptide, residues 46–99 (VGPGRWDEDGEKRIPLDVAEGDTVIYSKYGGTEIKYNGEEYLILSARDVLAVVS; UniProt P9WPE5 46-99, looked up, fragment)
osteolytic activity of peptides in the calvarial assay (murine calvaria): inactive

51–99: synthetic Mt cpn10 peptide, residues 51–99 (WDEDGEKRIPLDVAEGDTVIYSKYGGTEIKYNGEEYLILSARDVLAVVS; UniProt P9WPE5 51-99, looked up, fragment)
osteolytic activity of peptides in the calvarial assay (murine calvaria): inactive

54–99: synthetic Mt cpn10 peptide, residues 54–99 (DGEKRIPLDVAEGDTVIYSKYGGTEIKYNGEEYLILSARDVLAVVS; UniProt P9WPE5 54-99, looked up, fragment)
osteolytic activity of peptides in the calvarial assay (murine calvaria): inactive

59–99: synthetic Mt cpn10 peptide, residues 59–99 (IPLDVAEGDTVIYSKYGGTEIKYNGEEYLILSARDVLAVVS; UniProt P9WPE5 59-99, looked up, fragment)
osteolytic activity of peptides in the calvarial assay (murine calvaria): inactive

65–99: synthetic Mt cpn10 peptide, residues 65–99 (EGDTVIYSKYGGTEIKYNGEEYLILSARDVLAVVS; UniProt P9WPE5 65-99, looked up, fragment)
osteolytic activity of peptides in the calvarial assay (murine calvaria): reproducible osteolytic activity

GGIVLTGSAAA [GroES residues 23–33]
osteolytic activity of peptides in the calvarial assay (murine calvaria): osteolytic activity

TTTASGLVIPDTAKE [21–35]
osteolytic activity of peptides in the calvarial assay (murine calvaria): osteolytic activity

calcitonin (CGNLSTCMLGTYTQDFNKFHTFPQTAIGVGAP; ends and bridges not checked; cysteine pairing not given here; UniProt P01258 85-116, looked up) [reference compound]
effect on r-Mt cpn10-induced bone resorption (murine calvaria; calcitonin at 10 ng/ml, results not shown): blocked

lipoarabinomannan [Mt LAM, reference compound]
osteolytic activity (murine calvaria; added at a concentration of 1 μg/ml): no osteolytic activity

polymyxin B [reference compound]
effect of addition on bone resorbing activity of r-Mt cpn10 (murine calvaria): no effect
effect of addition on bone resorbing activity of the Mt sonicate (murine calvaria): no effect
effect on osteolytic activity of peptides 26–99 and 65–99 (murine calvaria): no inhibitory effects

B1: r-Mt cpn10: recombinant Mycobacterium tuberculosis chaperonin 10 expressed in Escherichia coli, purified by reversed-phase HPLC to >97% purity (protein, UniProt P9WPE5 2-100, looked up)
Co-chaperonin GroES: AKVNIKPLEDKILVQANEAETTTASGLVIPDTAKEKPQEGTVVAVGPGRWDEDGEKRIPLDVAEGDTVIYSKYGGTEIKYNGEEYLILSARDVLAVVSK
modifications: recombinant, expressed in E. coli
cytotoxicity (lactate dehydrogenase release) (MG63 cells): not due to cytotoxicity
concentration at which osteolytic activity (calcium release) was noted (murine calvaria): 1 ng/mL
concentration at which osteolytic activity was noted, molar equivalent (murine calvaria): 100 pmol
stimulation of bone resorption, measured as calcium release into the tissue culture medium (murine calvaria): dose-dependent stimulation of calcium release
concentrations causing significant inhibition of cell proliferation [1]: ≥ 1 nM
